Target: T1, GST-JAK2(808-1132) (Homo sapiens, UniProt O60674)
T1 construct: GST-JAK2(808-1132); purchased Invitrogen (Carlsbad, USA) #4288
Assay: JAK2 kinase assay (Caliper mobility shift, LabChip 3000)
Type: biochemical
Text: All four kinases of the JAK/TYK-kinase family were used as purified recombinant GST-fusion proteins, containing the active kinase domains. GST-JAK1 (866-1154), GST-JAK3(811-1124), and GST-TYK2(888-1187) were expressed and purified by affinity chromatography at the EPK biology unit. GST-JAK2(808-1132) was purchased from Invitrogen (Carlsbad, USA, #4288).
The kinase assays were based on the Caliper mobility shift assay using the LabChip 3000 systems. This technology is similar to capillary electrophoresis and uses charge driven separation of substrate and product in a microfluidic chip.
All kinase reactions were performed in 384 well microtiter plates in a total reaction volume of 18 μl. The assay plates were prepared with 0.1 μl per well of test compound in the appropriate test concentration, as described under the section “preparation of compound dilutions”. The reactions were started by combining 9 μl of substrate mix (consisting of peptide and ATP) with 9 μl of kinase dilution. The reactions were incubated for 60 minutes at 30° C. and stopped by adding 70 μl of stop buffer (100 mM Hepes, 5% DMSO, 0.1% Coating reagent, 10 mM EDTA, 0.015% Brij 35).
Fluorescently labeled synthetic peptides were used as substrates in all reactions. A peptide derived from the sequence of IRS-1(IRS-1 peptide, SEQ ID NO: 1 FITC-Ahx-KKSRGDYMTMQIG-NH2) was used for JAK1 and TYK2 and a peptide named JAK3tide SEQ ID NO: 2 (FITC-GGEEEEYFELVKKKK-NH2) for JAK2 and JAK3. Specific assay conditions are described in Table1:
The terminated reactions were transferred to the Caliper LabChip 3000 reader and the turnover of each reaction was measured by determining the substrate/product ratio.
Test compounds were dissolved in DMSO (10 mM) and transferred into 1.4 mL flat bottom or V-shaped Matrix tubes carrying a unique 2D matrix chip by individual compound hubs. The numbers of these chips were distinctively linked to the individual compound identification numbers. The stock solutions were stored at −20° C. if not used immediately. For the test procedure the vials were defrosted and identified by a scanner whereby a working sheet was generated that guided the subsequent working steps. Compound dilutions were made in 96 well plates. This format enabled the assay of maximally 40 individual test compounds at 8 concentrations (single points) including 4 reference compounds. The dilution protocol included the production of pre-dilution plates, master plates and assay plates:
Pre-dilution plates: 96 polypropylene well plates were used as pre-dilution plates. A total of 4 pre-dilution plates were prepared including 10 test compounds each on the plate positions A1-A10, one standard compound at A11 and one DMSO control at A12. All dilution steps were done on a HamiltonSTAR robot.
Master plates: 100 μL of individual compound dilutions including standard compound and controls of the 4 “pre-dilution plates” were transferred into a 384 “master plate” including the following concentrations 1,820, […], 182, 54.6, 18.2, 5.46, 1.82 and 0.546 μM, respectively in 90% of DMSO.
Assay plates: Identical assay plates were then prepared by pipetting 100 nL each of compound dilutions of the master plates into 384-well “assay plates”. In the following the compounds were mixed with 9 μL of assays components plus 9 μL enzyme corresponding to a 1:181 dilution steps enabling the final concentration of 10, 3.0, 1.0, 0.3, 0.1, 0.03, 0.01 and 0.003 μM, respectively. The preparation of the master plates were handled by the Matrix PlateMate Plus robot and replication of assay plates by the HummingBird robot.

T1 sequence (O60674 808-1132): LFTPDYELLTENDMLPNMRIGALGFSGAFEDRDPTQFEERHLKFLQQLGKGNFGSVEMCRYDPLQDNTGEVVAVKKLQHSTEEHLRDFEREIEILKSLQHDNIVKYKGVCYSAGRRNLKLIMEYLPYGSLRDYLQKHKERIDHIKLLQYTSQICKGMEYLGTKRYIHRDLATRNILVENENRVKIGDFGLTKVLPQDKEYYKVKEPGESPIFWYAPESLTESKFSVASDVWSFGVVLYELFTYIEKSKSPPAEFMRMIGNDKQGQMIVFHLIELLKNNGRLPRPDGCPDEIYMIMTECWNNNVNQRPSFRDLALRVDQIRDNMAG

SMILES	IC50
COc1ccc(Nc2ncc3ccn(-c4ccc(S(C)(=O)=O)cc4)c3n2)c(OC)c1 [Example 22, (2,4-Dimethoxy-phenyl)-[7-(4-methanesulfonyl-phenyl)-7H-pyrrolo[2,3-d]pyrimidin-2-yl]-amine]	170 nM
COc1cc(Nc2ncc3ccn(-c4ccc(S(C)(=O)=O)cc4)c3n2)cc(OC)c1 [Example 23, (3,5-Dimethoxy-phenyl)-[7-(4-methanesulfonyl-phenyl)-7H-pyrrolo[2,3-d]pyrimidin-2-yl]-amine]	3.6 nM
COc1ccc(Nc2ncc3ccn(-c4ccc(S(C)(=O)=O)cc4)c3n2)cc1N1CCN(C)CC1 [Example 25, [7-(4-Methanesulfonyl-phenyl)-7H-pyrrolo[2,3-d]pyrimidin-2-yl]-[4-methoxy-3-(4-methyl-piperazin-1-yl)-phenyl]-amine]	< 3 nM
CN1CCN(C(=O)c2ccc(Nc3ncc4ccn(-c5ccc(S(C)(=O)=O)cc5)c4n3)cc2)CC1 [Example 28, {4-[7-(4-Methanesulfonyl-phenyl)-7H-pyrrolo[2,3-d]pyrimidin-2-ylamino]-phenyl}-(4-methyl-piperazin-1-yl)-methanone]	4 nM
CN1CCN(CCOc2cccc(Nc3ncc4ccn(-c5ccc(S(C)(=O)=O)cc5)c4n3)c2)CC1 [Example 32, [7-(4-Methanesulfonyl-phenyl)-7H-pyrrolo[2,3-d]pyrimidin-2-yl]-{3-[2-(4-methyl-piperazin-1-yl)-ethoxy]-phenyl}-amine]	5.4 nM
CS(=O)(=O)c1ccc(-n2ccc3cnc(Nc4cccc(OCCN5CCOCC5)c4)nc32)cc1 [Example 35, [7-(4-Methanesulfonyl-phenyl)-7H-pyrrolo[2,3-d]pyrimidin-2-yl]-[3-(2-morpholin-4-yl-ethoxy)-phenyl]-amine]	4.9 nM
CC(C)(C)OC(=O)N1CCN(Cc2ccc(Nc3ncc4ccn(-c5ccc(S(C)(=O)=O)cc5)c4n3)cc2)CC1 [Example 45, 4-{4-[7-(4-Methanesulfonyl-phenyl)-7H-pyrrolo[2,3-d]pyrimidin-2-ylamino]-benzyl}-piperazine-1-carboxylic acid tert-butyl ester]	6.1 nM
CC(C)(C)OC(=O)N1CCCC1c1ccc(Nc2ncc3ccn(-c4ccc(S(C)(=O)=O)cc4)c3n2)cc1 (centres unmarked) [Example 46, 2-{4-[7-(4-Methanesulfonyl-phenyl)-7H-pyrrolo[2,3-d]pyrimidin-2-ylamino]-phenyl}-pyrrolidine-1-carboxylic acid tert-butyl ester]	38 nM
CCN1CCCC1CNC(=O)c1ccc(-n2ccc3cnc(Nc4ccc(F)cc4)nc32)cc1 (centres unmarked) [Example 63, N-(1-Ethyl-pyrrolidin-2-ylmethyl)-4-[2-(4-fluoro-phenylamino)-pyrrolo[2,3-d]pyrimidin-7-yl]-benzamide]	73 nM
CC(C)(C)OC(=O)N1CCN(C(=O)c2ccc(Nc3ncc4ccn(-c5ccc(S(C)(=O)=O)cc5)c4n3)cc2)CC1 [Example 69, 4-{4-[7-(4-Methanesulfonyl-phenyl)-7H-pyrrolo[2,3-d]pyrimidin-2-ylamino]-benzoyl}-piperazine-1-carboxylic acid tert-butyl ester]	4.8 nM
Fc1cc(-n2ccc3cnc(Nc4cccc(CN5CCOCC5)c4)nc32)cc(F)c1CN1CCOCC1 [Example 198, [7-(3,5-Difluoro-4-morpholin-4-ylmethyl-phenyl)-7H-pyrrolo[2,3-d]pyrimidin-2-yl]-(3-morpholin-4-ylmethyl-phenyl)-amine]	< 3 nM
CN1CCN(Cc2ccc(Nc3ncc4ccn(-c5cc(F)c(CN6CCOCC6)c(F)c5)c4n3)cc2C(F)(F)F)CC1 [Example 200, [7-(3,5-Difluoro-4-morpholin-4-ylmethyl-phenyl)-7H-pyrrolo[2,3-d]pyrimidin-2-yl]-[4-(4-methyl-piperazin-1-ylmethyl)-3-trifluoromethyl-phenyl]-amine]	3.7 nM
CN1CCN(Cc2ccc(Nc3ncc4ccn(-c5cc(F)c(C(=O)N6CCOCC6)c(F)c5)c4n3)cc2C(F)(F)F)CC1 [Example 204, (2,6-Difluoro-4-{2-[4-(4-methyl-piperazin-1-ylmethyl)-3-trifluoromethyl-phenylamino]-pyrrolo[2,3-d]pyrimidin-7-yl}-phenyl)-morpholin-4-yl-methanone]	< 3 nM
CN1CCN(Cc2ccc(Nc3ncc4ccn(-c5cc(F)c(C(=O)N6CCOCC6)c(F)c5)c4n3)cc2)CC1 [Example 205, (2,6-Difluoro-4-{2-[4-(4-methyl-piperazin-1-ylmethyl)-phenylamino]-pyrrolo[2,3-d]pyrimidin-7-yl}-phenyl)-morpholin-4-yl-methanone]	5 nM

The next lines start with the values.

IC50	SMILES
< 3 nM	CN1CCN(c2ccc(Nc3ncc4ccn(-c5ccc(S(C)(=O)=O)cc5)c4n3)cc2)CC1 [Example 18, [7-(4-Methanesulfonyl-phenyl)-7H-pyrrolo[2,3-d]pyrimidin-2-yl]-[4-(4-methyl-piperazin-1-yl)-phenyl]-amine]
6.9 nM	CS(=O)(=O)c1ccc(-n2ccc3cnc(Nc4ccccc4)nc32)cc1 [Example 19, [7-(4-Methanesulfonyl-phenyl)-7H-pyrrolo[2,3-d]pyrimidin-2-yl]-phenyl-amine]
3.9 nM	COc1ccc(Nc2ncc3ccn(-c4ccc(S(C)(=O)=O)cc4)c3n2)cc1 [Example 20, [7-(4-Methanesulfonyl-phenyl)-7H-pyrrolo[2,3-d]pyrimidin-2-yl]-(4-methoxy-phenyl)-amine]
23 nM	CN(C)c1ccc(Nc2ncc3ccn(-c4ccc(S(C)(=O)=O)cc4)c3n2)cc1 [Example 21, N-[7-(4-Methanesulfonyl-phenyl)-7H-pyrrolo[2,3-d]pyrimidin-2-yl]-N′,N′-dimethyl-benzene-1,4-diamine]
3.5 nM	COc1ccc(Nc2ncc3ccn(-c4ccc(S(C)(=O)=O)cc4)c3n2)cc1O [Example 24, 5-[7-(4-Methanesulfonyl-phenyl)-7H-pyrrolo[2,3-d]pyrimidin-2-ylamino]-2-methoxy-phenol]
< 3 nM	COc1ccc(Nc2ncc3ccn(-c4ccc(S(C)(=O)=O)cc4)c3n2)cc1OCCN(C)C [Example 26, [3-(2-Dimethylamino-ethoxy)-4-methoxy-phenyl]-[7-(4-methanesulfonyl-phenyl)-7H-pyrrolo[2,3-d]pyrimidin-2-yl]-amine]
< 3 nM	CCN(CC)CCOc1ccc(Nc2ncc3ccn(-c4ccc(S(C)(=O)=O)cc4)c3n2)cc1 [Example 33, [4-(2-Diethylamino-ethoxy)-phenyl]-[7-(4-methanesulfonyl-phenyl)-7H-pyrrolo[2,3-d]pyrimidin-2-yl]-amine]
< 3 nM	CS(=O)(=O)c1ccc(-n2ccc3cnc(Nc4ccc(N5CCNCC5)cc4)nc32)cc1 [Example 37, [7-(4-Methanesulfonyl-phenyl)-7H-pyrrolo[2,3-d]pyrimidin-2-yl]-(4-piperazin-1-yl-phenyl)-amine]
4.5 nM	CN1CCN(Cc2ccc(Nc3ncc4ccn(-c5ccc(S(C)(=O)=O)cc5)c4n3)cc2)CC1 [Example 38, [7-(4-Methanesulfonyl-phenyl)-7H-pyrrolo[2,3-d]pyrimidin-2-yl]-[4-(4-methyl-piperazin-1-ylmethyl)-phenyl]-amine]
< 3 nM	CS(=O)(=O)c1ccc(-n2ccc3cnc(Nc4ccc(C(=O)NCCO)cc4)nc32)cc1 [Example 51, N-(2-Hydroxy-ethyl)-4-[7-(4-methanesulfonyl-phenyl)-7H-pyrrolo[2,3-d]pyrimidin-2-ylamino]-benzamide]
< 3 nM	CS(=O)(=O)c1ccc(-n2ccc3cnc(Nc4ccc(CN5CCNCC5)cc4)nc32)cc1 [Example 52, [7-(4-Methanesulfonyl-phenyl)-7H-pyrrolo[2,3-d]pyrimidin-2-yl]-(4-piperazin-1-ylmethyl-phenyl)-amine]
20 nM	CS(=O)(=O)c1ccc(-n2ccc3cnc(Nc4ccc(F)cc4)nc32)cc1 [Example 55, (4-Fluoro-phenyl)-[7-(4-methanesulfonyl-phenyl)-7H-pyrrolo[2,3-d]pyrimidin-2-yl]-amine]

Reference: US8420657B2 (Novartis AG, priority 2008, dated 2013)
